Experiments:
Assay type in all cases: in vivo, female Sprague-Dawley rats
[1] = test system: chemically induced bladder hyperactivity; assay: Cystometrogram (CMG): liposomes of various lipids infused in the presence of KCl after protamine sulfate (Examples 1-4); details: included at 1 mol % in DSPC liposomes
Text: Bladder reflex activity in thirty-four (34) female Sprague-Dawley rats (200-250 g) was studied by cystometry performed under anesthesia with urethane (1.2 g/kg) administered by subcutaneous injection. Body temperature was maintained in the physiologic range using a heating lamp. A transurethral bladder catheter (PE-50) connected by a three-way stopcock to a pressure transducer and to a syringe pump was used to record intravesical pressure and to infuse solutions into the bladder. A control cystometrogram (CMG) was performed by slowly filling the bladder with saline at a rate of 0.04 ml/min to elicit repetitive voiding. The bladder contraction frequency of the reflex bladder contractions were recorded. After performing control CMGs with saline infusion for 3 hours, protamine sulfate (PS) (Sigma Chemical; 10 mg/ml) was infused at a rate of 0.04 ml/min for 1 hour to increase epithelial permeability followed by infusion of the irritant KCl (500 mM) for 1 hour. Subsequently, liposomes made from lipids of various compositions then were infused in the presence of a high concentration of KCl for 2 hours.
The effect of charge on the lipid headgroup in reducing bladder activity in three animal groups (n=5) was determined. Neutrally charged liposomes prepared with L-α-PC (a zwitterionic lipid egg PC) were compared against liposomes having either a positively or negatively charged polar headgroup, namely, 1,2-dioleoyl-3-trimethylammonium-propane (DOTAP) and 1-α-phosphatidylserine (POPS), respectively.
Liposomes were prepared as described by Kirby and Gregoriadis (Kirby, C. J. and Gregoriadia, G., “A simple procedure for preparing liposomes capable of high encapsulation efficiency under mild conditions,” Liposome Technology, G. Gregnoriadis, Ed., C.R.C. Press, Inc., Boca Raton, Fla., 1984, Vol. 1, p. 20, 1984). Briefly, liposomes were constructed as a 2:1 molar ratio of L-α-phosphatidylcholine and cholesterol (Sigma Chemical Co., St. Louis, Mo.) to a final lipid concentration of 1-2 mg/ml in saline. Lipids in chloroform were dried down together in the proper ratio under nitrogen. The residues were reconstituted as liposomes in saline or 500 mM KCl by intense sonication. This lipid composition produced liposomes with no net charge.
Statistical analyses were performed using Student's t test for paired or unpaired data, where applicable. A P-value less than 0.05 was considered significant. All data were expressed as means±S.E. (standard error).
Neutrally charged liposomes prepared with sphingomyelin were compared against liposomes prepared from dihydrosphingomyelin and two pure synthetic lipids: 1,2-distearoyl-sn-glycero-3-phosphocholine (DSPC) and 1,-oleoyl-2-stearoyl-sn-glycero-3-phosphocholine (OSPC).
The methodology of this investigation is the same as described above in Example 1 with the exception that the preparation of liposomes was modified from Example 1. Briefly, liposomes were constructed as a 2:1 molar ratio of sphingomyelin and cholesterol (Sigma Chemical Co., St. Louis, Mo.) to a final lipid concentration of 1-2 mg/ml in saline. Lipids in chloroform were dried down together in the proper ratio under nitrogen. The residues were reconstituted as liposomes in saline or 500 mM KCl by intense sonication. This lipid composition produced sphingomyelin liposomes with no net charge.
Sphingomyelin devoid of its phosphorylcholine head group generates the molecule ceramide, a well known lipid second messenger which mediates a wide range of cellular responses to external stimuli, and also is used for the biosynthesis of sphingomyelin and glycosphingolipids. Because ceramide cannot form stable liposomes by itself, its effect on bladder hyperactivity was tested by including it at 1 mol % in an inert lipid, namely, 1,2-distearoyl-sn-glycero-3-phosphocholine (DSPC).
The methodology of this investigation is the same as described above in Example 1 with the exception that the preparation of liposomes was modified from Example 1. […]

[2] = test system: hyperactive bladder (acetic acid); assay: Continuous CMG, hyperactive bladder induced by acetic acid (Examples 5-6)
Protocol: This was followed by instillation of liposomes (LP) in saline (in the case of the former) or LP/KCl.
Intravesical bladder pressure was recorded via a transurethral catheter in adult female Sprague-Dawley rats anesthetized with urethane (1.2 g/kg) administered by subcutaneous injection (sc). Some animals were pretreated with capsaicin (125 mg/kg, sc) four days prior to the experiments. […] Parameters measured included intercontraction interval (ICI), amplitude of bladder contractions, compliance and micturition pressure threshold (PT).
Animal Preparation. Thirty-four female Sprague-Dawley rats (250-300 g) were used in this study. Animals were anesthetized with urethane (1.2 g/kg, sc). Body temperature was maintained in the physiological range using a heating lamp.
Cystometrogram (CMG). A transurethral bladder catheter (PE-50) was connected via a three-way stopcock to a pressure transducer and to a syringe pump. This was used to record intravesical pressure and to infuse solutions into the bladder. A control CMG was performed by slowly filling the bladder with saline (0.04 ml/min) to elicit repetitive voiding. The parameters recorded were amplitude, PT, compliance, and ICI of reflex bladder contractions. Measurements in each animal represented the average of 3 to 5 bladder contractions.
Induction of a Hyperactive Bladder. […] L. Cheng et al., 1993, Am. J. Physiol. 265:R132-138). The experimental design is illustrated in FIG. 7. The KCl concentration used was within the range of concentrations present in normal rat urine (M. Ohnishi et al., 2001, Toxicol. Appl. Pharmacol. 174:122-129).
Preparation of Liposomes (LP). LP were prepared as described by Kirby and Gregoriadis (C. J. Kirby and G. Gregoriadia, 1984, “A simple procedure for preparing liposomes capable of high encapsulation efficiency under mild conditions,” Liposome Technology; G. Gregnoriadis, Ed., C.R.C. Press, Inc., Boca Raton, Fla., Vol. 1, p. 20). Briefly, LP were constructed as a 2:1 molar ratio of L-α-phosphatidylcholine and cholesterol (Sigma Chemical Co., St. Louis, Mo.) to a final lipid concentration of 2 mg/ml in saline. Lipids in chloroform were dried down together in the proper ratio under nitrogen. The residues were reconstituted as LP in saline or 500 mM KCl by intense sonication.
Statistical Analyis. Statistical analyses were performed using Student's t test for paired or unpaired data, where applicable. A p-value less than 0.05 was considered significant. All data are expressed in Example 2 (below) as means±S.E.

[3] = test system: acute hyperactive bladder; assay: Continuous CMG, acute hyperactive bladder model with intravesical PS and KCl (Examples 7-8)
Protocol: An animal model for acute hyperactive bladder in rats was developed using intravesical infusion of PS, an agent used to break down urothelial barrier function and physiological concentrations of KCl.
Continuous CMGs were performed in urethane-anesthetized female rats. The bladder was filled (0.04 ml/min) with normal saline followed by intravesical infusion for a 60 minute period with a test solution comprising either KCl (100 or 500 mM) or PS (10 or 30 mg/ml). Following this, 10 mg/ml PS treated animals were infused intravesically with 100, 300 or 500 mM KCl. Some animals were pretreated with capsaicin ([…], sc) four days before the experiments.
Animal Preparation. The study was performed on 40 female Sprague-Dawley rats weighing 250-300 gm. Animals were anesthetized with 1.2 gm/kg urethane injected subcutaneously. Body temperature was maintained in the physiological range using a heating lamp.
Cystometrogram (CMG). PE-50 tubing (Clay-Adams, Parsippany, N.J.) was inserted into the bladder through the urethra and connected via a three-way stopcock to a pressure transducer and to a syringe pump. This was used for recording intravesical pressure and for infusing solutions into the bladder. A control CMG was performed by slowly filling the bladder with saline (0.04 ml/min) to elicit repetitive voiding. The amplitude, PT, compliance and intercontraction interval (ICI) of reflex bladder contractions were recorded. Pressure threshold (PT) represents the pressure that induces the initial bladder contraction. PT often has been used as a parameter corresponding to afferent nerve activity for the induction of reflex bladder contractions. Measurements in each animal represented the average of 3 to 5 bladder contractions.
After performing control CMGs with saline infusion, three intravesical infusion experiments were performed in parallel: (1) infusion of KCl (100 or 500 mM in saline) for one hour (N=4 in each group); (2) infusion of PS (Sigma Chemical Co.; 30 mg/ml in saline) for one hour (N=6); and (3) infusion of PS (10 mg/ml) for one hour, followed by 100, 300 or 500 mM KCl for one hour (N=6, in each subgroup). In four animals, capsaicin dissolved in a vehicle containing 10% ethanol, 10% TWEEN®80 and 80% physiological saline, at a concentration of 20 mg/ml was given subcutaneously in divided doses on 2 consecutive days. The doses included 25 and 50 mg/kg at a 12-hour interval on the first day and 50 mg/kg on the second day, as previously described (C. L. Cheng et al., 1993, Am. J. Physiol. 265:R132-138). All injections were performed under halothane anesthesia. Four days after the last dosage of capsaicin, the animals were anesthetized and treated with intravesical administration of PS (10 mg/ml) for 1 hour followed by KCl (500 mM) infusion.
Suppression of Micturition Reflex. To evaluate the direct effects of potassium on detrusor muscle, micturition reflex was blocked in 4 animals by either intravenous hexamethonium injection (25 mg/kg) (N=2) or transection of bilateral pelvic nerves (N=2).
Statistical Analysis. Statistical analyses were performed using Student's t test for paired or unpaired data, as applicable, with p<0.05 considered significant. Quantitative data are expressed in Example 8 (below) as means plus or minus standard error.

Structure (SMILES) | effect on efficacy of DSPC liposomes in reducing bladder contraction frequency [1] | delay of bladder hyperactivity evoked by AA ([2]; capsaicin pretreated animals) [h] | delay of onset of the irritative effects of AA ([2]; pretreatment with capsaicin 125 mg/kg sc four days before) [min] | ICI decrease ([3]; capsaicin pretreated animals, PS 10 mg/ml then KCl 500 mM, 2 hours of infusion) [%] | delay of hyperactive bladder ([3]; capsaicin pretreated animals, sequential PS 10 mg/ml and KCl 500 mM) | delay of onset of irritative effects ([3]; capsaicin pretreatment, PS 10 mg/ml then KCl 500 mM) [min] | PS/KCl-induced bladder hyperactivity after capsaicin pretreatment ([3]; capsaicin sc in divided doses, four days before)
CCCCCCCCCCCCC/C=C/[C@@H](O)[C@@H](N)CO [sphingosine] | had a similar effect | – | – | – | – | – | –
COc1cc(CNC(=O)CCCCC=CC(C)C)ccc1O [capsaicin, 8-methyl-N-vanillyl-6-nonenamid] | – | 0.5 to 1 | 30 to 60 | 35.5 | about 1 hour | ~60 | suppressed PS/KCl-induced bladder hyperactivity
